Among the data in ChEMBL document CHEMBL3045208, “Synthesis and Inhibitory Effect on Photosynthetic Electron Transport of 1,3,5-Triazinylcarboxylic Acid Derivatives” (J Pestic Sci, 2005) are Selectivity ratio and pI50 values, retold here.

Assay [1] concerns the target Chloroplast thylakoid membrane protein (psbA) (Chenopodium album) (UniProt Q31945). The assay can be described thus: Selectivity ratio of I50 for photosynthetic electron transport protein complex in atrazine-resistant Chenopodium album thylakoid to I50 for photosynthetic electron transport protein complex in wild type Chenopodium album thylakoid.
Assay [2] in a line: Inhibition of photosynthetic electron transport protein complex in Spinacia oleracea (spinach) leaf thylakoid.
In assay [3] the target is Photosystem II protein D1 (Spinacia oleracea, UniProt P69560). The assay can be described thus: Inhibition of photosynthetic electron transport protein complex in Spinacia oleracea (spinach) leaf thylakoid.

SMILES strings stand for the structures.

Chain of Chloroplast thylakoid membrane protein (psbA) (Chenopodium album) (Q31945 1-69): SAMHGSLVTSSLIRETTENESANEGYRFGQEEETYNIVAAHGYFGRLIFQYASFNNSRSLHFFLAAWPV

`C#CCNc1nc(C)nc(C(=O)OCC)n1`: the Selectivity ratio in assay [1] came out at 1.23.

In assay [2], `Cc1nc(NCc2ccccc2)nc(C(F)(F)F)n1` came in with a pI50 of 6.85. For the same molecule, the Selectivity ratio in assay [1] amounted to 2.6.

As to `CCNc1nc(Cl)nc(NC(C)C)n1` [ATRAZINE], the pI50 in assay [2] was found to be 6.73. For the same molecule, the Selectivity ratio in assay [1] worked out at 324.

As for `Cc1nc(NCc2ccccc2)nc(C(F)F)n1`, in assay [2], the pI50 is on record as 5.63. In assay [1], the Selectivity ratio turned out to be 2.5.

On to `Cc1nc(CF)nc(NCc2ccccc2)n1`, for which the pI50 in assay [2] came to 4.98.

As for `CCOC(=O)c1nc(C)nc(NC(C)C)n1`, the Selectivity ratio in assay [1] is 2.45. Besides, in assay [3], the pI50 stood at 6.11.

`COC(=O)c1nc(C)nc(NCc2ccccc2)n1` returned a pI50 in assay [3] of 4.

For the molecule `CCOC(=O)c1nc(C)nc(NCc2ccccc2)n1`, in assay [1], the Selectivity ratio was determined as 0.98. The pI50 in assay [3] was determined as 4.88.

Take `CCOC(=O)c1nc(C)nc(NC(C)CC)n1` (centres undefined): in assay [3], the pI50 was 4.37.
